The text below walks through data of ChEMBL document CHEMBL1201862, “PubChem BioAssay data set” (2004).

Assay [1] is described as follows: Trypanosoma cruzi growth suppression in host cells – NIH3T3 host cells, beta-gal luminescence, confirmation (AID 2044).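 Note: intracellular parasites grown in NIH/3T3 mouse fibroblasts as host cells; luminescent beta-galactosidase reporter signal from transgenic T. cruzi replicating inside host cells; inhibitors lower the luminescence signal.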 It is filed as functional, cell-based.
A short description of assay [2]: HEK-293T viability loss after treatment – luminescence, T-cell screen hits, cytotoxicity control for TCR NF-kB inhibitor project, dose response (AID 489026).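 Note: cells exposed to compound about 14 hours before the viability readout.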 It is filed as functional, cell-based.
The nature of assay [3]: NIH3T3 cell viability loss – ATP luminescence, mouse fibroblasts, counter-screen, dose response (AID 2010).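 Note: cells exposed to compound for about 90 hours before reading.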 It is filed as functional, cell-based. (In general: The purpose of a counterscreen is to sort out artefacts and off-target activity.)
In a further assay the target is Cytochrome P450 3A4 (Homo sapiens, UniProt P08684). The following applies: Potency.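 Note: confirmatory qHTS run detecting inhibitors and substrates of CYP3A4.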
Sequence of Cytochrome P450 3A4 (P08684 whole entry): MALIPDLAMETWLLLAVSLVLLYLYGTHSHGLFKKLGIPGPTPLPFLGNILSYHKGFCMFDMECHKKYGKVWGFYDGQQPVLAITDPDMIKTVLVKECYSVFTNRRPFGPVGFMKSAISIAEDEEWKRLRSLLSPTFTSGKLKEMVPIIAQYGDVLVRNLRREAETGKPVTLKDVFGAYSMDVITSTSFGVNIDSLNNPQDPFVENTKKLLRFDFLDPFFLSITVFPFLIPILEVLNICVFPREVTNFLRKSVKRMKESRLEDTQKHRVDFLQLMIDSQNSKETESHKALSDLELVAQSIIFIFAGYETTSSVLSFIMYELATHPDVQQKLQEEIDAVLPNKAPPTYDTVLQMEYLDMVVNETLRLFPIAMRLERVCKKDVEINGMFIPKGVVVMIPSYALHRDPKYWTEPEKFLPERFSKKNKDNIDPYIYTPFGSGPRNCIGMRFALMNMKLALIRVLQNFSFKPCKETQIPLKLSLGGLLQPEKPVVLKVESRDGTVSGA
A short description of assay [4]: A cytotoxicity screen of small molecule inhibitors of the PhoP region in Salmonella typhi identified in the primary screen. [Related pubchem assays: 1850, 1864, 1985 ]. In kind it is functional.
The target in assay [5] is T1, E3 ubiquitin-protein ligase XIAP (Homo sapiens, UniProt P98170). The assay can be described thus: small molecules displacing peptide from XIAP – biochemical, IAP family, fluorescence polarization (AID 1018). It is filed as functional.
T1 sequence (P98170 whole entry): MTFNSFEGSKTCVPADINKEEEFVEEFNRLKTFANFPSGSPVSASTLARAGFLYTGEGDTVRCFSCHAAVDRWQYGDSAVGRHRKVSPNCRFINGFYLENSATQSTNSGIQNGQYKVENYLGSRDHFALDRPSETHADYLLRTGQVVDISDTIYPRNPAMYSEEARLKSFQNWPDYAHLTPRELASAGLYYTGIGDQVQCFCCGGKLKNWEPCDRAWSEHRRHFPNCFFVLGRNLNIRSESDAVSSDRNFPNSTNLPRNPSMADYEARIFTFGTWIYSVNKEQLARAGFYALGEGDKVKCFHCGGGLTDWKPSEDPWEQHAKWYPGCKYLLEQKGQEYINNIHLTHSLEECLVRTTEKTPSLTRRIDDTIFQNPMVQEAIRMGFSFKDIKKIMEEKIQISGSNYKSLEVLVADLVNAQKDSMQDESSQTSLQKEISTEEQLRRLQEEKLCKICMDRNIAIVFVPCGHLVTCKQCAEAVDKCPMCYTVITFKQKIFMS
Assay [6] concerns the target T1, E3 ubiquitin-protein ligase XIAP. Briefly: Counter Screen using XIAP-Bir3 for Chemical Antagonists of Bir1/2 domains of IAP-family anti-apoptotic proteins. [Related pubchem assays (depositor defined):AID1018, AID1449, AID1514, AID1638, AID1749, AID1750, AID488957, AID488963].
The target in assay [7] is Dual specificity tyrosine-phosphorylation-regulated kinase 1A (Rattus norvegicus, UniProt Q63470). In kind it is biochemical, Homo sapiens.
Assay [8] concerns the target FAD-linked sulfhydryl oxidase ALR (Homo sapiens, UniProt P55789). The assay can be described thus: ALR-catalysed DTT oxidation blockers – biochemical, H2O2 detection, luminescence, cherry-pick, dose response (AID 493248).
Assay [9] has as its target Glyceraldehyde-3-phosphate dehydrogenase (Homo sapiens, UniProt P04406).
For assay [10], the target named is Glucose-6-phosphate 1-dehydrogenase (Homo sapiens, UniProt P11413). Briefly: inhibition of Homo sapiens G6PD, dose series – biochemical, fluorescence, selectivity assay for P. falciparum G6PD inhibitor project, dose response (AID 504792). It is filed as functional.
Sequence of Glucose-6-phosphate 1-dehydrogenase (P11413 whole entry): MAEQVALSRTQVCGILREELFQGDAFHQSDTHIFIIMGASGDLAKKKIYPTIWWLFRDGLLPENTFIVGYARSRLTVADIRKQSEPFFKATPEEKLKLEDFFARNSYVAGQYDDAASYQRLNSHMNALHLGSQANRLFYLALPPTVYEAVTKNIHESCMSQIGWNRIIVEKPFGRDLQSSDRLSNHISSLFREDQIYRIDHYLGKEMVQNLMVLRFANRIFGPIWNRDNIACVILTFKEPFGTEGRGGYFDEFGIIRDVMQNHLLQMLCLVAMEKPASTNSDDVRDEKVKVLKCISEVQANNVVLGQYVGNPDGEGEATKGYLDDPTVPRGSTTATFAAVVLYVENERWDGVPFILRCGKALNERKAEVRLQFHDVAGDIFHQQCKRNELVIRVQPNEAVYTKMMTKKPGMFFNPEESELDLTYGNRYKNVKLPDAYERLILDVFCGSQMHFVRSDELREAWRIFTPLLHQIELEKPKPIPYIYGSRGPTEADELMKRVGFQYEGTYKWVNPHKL
Assay [11] concerns the target DNA dC->dU-editing enzyme APOBEC-3G (Homo sapiens, UniProt Q9HC16). The assay can be described thus: Dose Response confirmation of small molecule APOBEC3G DNA Deaminase Inhibitors via a fluorescence-based single-stranded DNA deaminase assay. [Related pubchem assays (depositor defined):AID493012, AID493028]. It is filed as functional.
Assay [12] concerns the target T2, Replicative DNA helicase DnaB (Mycobacterium tuberculosis, UniProt P9WMR3).
T2 sequence (P9WMR3 whole entry): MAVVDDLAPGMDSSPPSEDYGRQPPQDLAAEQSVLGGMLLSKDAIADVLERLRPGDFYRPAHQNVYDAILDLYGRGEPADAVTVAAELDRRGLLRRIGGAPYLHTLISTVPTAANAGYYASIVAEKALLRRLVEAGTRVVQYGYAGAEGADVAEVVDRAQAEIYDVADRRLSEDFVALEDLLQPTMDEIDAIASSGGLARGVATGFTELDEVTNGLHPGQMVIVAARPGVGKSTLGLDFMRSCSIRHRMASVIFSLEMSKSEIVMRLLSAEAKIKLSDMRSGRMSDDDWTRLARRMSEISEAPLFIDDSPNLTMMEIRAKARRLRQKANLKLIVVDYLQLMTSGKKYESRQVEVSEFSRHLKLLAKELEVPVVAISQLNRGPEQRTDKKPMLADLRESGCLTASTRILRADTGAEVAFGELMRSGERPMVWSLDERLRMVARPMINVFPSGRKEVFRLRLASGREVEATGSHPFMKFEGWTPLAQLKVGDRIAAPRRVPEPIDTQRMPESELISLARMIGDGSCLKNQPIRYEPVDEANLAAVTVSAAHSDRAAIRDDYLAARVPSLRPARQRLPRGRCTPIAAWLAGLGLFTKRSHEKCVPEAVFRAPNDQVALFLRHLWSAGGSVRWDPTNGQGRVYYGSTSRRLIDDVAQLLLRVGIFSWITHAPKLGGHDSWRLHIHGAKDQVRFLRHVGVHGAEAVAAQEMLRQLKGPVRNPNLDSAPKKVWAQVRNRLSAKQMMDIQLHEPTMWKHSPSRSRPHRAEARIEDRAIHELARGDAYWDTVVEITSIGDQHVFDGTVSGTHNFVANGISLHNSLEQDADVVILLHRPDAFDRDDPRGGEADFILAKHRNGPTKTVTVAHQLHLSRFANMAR
The assay can be described thus: DnaB intein splicing inhibitors, dose response, biochemical, cell-free fluorescence (AID 449749). It is filed as functional.

A further assay addresses Prothrombin (Homo sapiens, UniProt P00734). The assay can be described thus: Thrombin 1536 HTS Dose Response Confirmation. [Related pubchem assays: 1046 (Thrombin 1536 HTS; hits were confirmed in this assay)]. In kind it is functional.
Another assay has as its target T3, Protein RecA (Mycobacterium tuberculosis, UniProt P9WHJ3).
T3 sequence (P9WHJ3 whole entry): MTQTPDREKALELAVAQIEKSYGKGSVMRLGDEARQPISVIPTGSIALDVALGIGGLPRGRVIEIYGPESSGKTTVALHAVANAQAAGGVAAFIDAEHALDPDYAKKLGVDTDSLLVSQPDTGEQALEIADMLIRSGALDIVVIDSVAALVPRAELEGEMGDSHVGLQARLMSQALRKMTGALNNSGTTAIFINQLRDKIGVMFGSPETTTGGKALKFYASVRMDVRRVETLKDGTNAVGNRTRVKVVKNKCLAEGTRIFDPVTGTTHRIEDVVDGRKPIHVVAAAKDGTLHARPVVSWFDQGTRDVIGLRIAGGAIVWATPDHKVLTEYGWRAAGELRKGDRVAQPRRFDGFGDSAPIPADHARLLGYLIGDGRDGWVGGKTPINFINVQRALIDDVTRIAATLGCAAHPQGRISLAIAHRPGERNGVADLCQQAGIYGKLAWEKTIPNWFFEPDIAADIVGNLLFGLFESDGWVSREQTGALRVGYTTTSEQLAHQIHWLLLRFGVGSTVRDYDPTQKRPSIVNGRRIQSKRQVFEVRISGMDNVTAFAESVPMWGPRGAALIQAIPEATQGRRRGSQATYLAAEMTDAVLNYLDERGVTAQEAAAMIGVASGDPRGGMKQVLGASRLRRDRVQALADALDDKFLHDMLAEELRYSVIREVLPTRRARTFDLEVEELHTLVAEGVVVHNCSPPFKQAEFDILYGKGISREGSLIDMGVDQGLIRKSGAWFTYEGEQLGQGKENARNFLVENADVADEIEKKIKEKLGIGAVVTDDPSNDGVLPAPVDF
The assay can be described thus: Fluorescence Cell-Free Homogeneous Dose Retest to Identify Inhibitors of RecA-Intein Splicing Activity. [Related pubchem assays (depositor defined):AID2097, AID2223, AID489010, AID492950]. It is filed as functional.

Assay [13] in a line: non-specific 3'UTR reporter inhibition in Clone20-Shn3RL – cell-based, Renilla luciferase, cherry-picked, counter-screen for Shn3 inhibitor project, dose response (AID 624133). In kind it is functional.
Assay [14] in a line: reduction of Shn3 3'UTR-driven luciferase in osteoblasts – cell-based, Clone20 osteoblasts, firefly luciferase, cherry-picked, dose response (AID 624132).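 Note: firefly luciferase luminescence from reporter carrying the Shn3 3'UTR in osteoblasts.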 In kind it is functional.
A further assay relates to H9c2. Briefly: cells. Conditions: Rattus norvegicus, H9c2, Myocardium. It is filed as functional, cell-based.

Active and inactive are the calls of the source. Bounds are passed on as bounds.

Sequence of DNA dC->dU-editing enzyme APOBEC-3G (Q9HC16 whole entry): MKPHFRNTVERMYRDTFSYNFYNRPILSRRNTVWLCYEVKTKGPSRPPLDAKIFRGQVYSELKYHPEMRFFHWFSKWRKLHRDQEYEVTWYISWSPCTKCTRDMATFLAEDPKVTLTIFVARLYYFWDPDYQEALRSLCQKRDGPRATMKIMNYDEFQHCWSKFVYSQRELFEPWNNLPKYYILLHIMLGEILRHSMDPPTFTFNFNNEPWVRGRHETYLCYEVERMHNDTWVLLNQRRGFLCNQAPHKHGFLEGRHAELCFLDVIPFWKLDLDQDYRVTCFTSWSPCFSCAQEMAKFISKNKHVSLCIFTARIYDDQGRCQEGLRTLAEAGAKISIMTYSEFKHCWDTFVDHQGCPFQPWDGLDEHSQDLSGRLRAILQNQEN
Sequence of Glyceraldehyde-3-phosphate dehydrogenase (P04406 whole entry): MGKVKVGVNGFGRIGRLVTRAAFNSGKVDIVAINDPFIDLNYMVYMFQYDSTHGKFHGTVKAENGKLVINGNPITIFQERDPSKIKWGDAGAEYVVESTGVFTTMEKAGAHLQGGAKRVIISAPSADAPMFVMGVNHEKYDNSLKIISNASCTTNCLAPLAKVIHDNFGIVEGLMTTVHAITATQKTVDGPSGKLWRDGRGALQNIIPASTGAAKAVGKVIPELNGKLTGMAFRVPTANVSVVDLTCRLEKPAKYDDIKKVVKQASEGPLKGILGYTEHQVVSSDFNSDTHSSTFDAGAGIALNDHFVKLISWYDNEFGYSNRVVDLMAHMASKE
Sequence of FAD-linked sulfhydryl oxidase ALR (P55789 whole entry): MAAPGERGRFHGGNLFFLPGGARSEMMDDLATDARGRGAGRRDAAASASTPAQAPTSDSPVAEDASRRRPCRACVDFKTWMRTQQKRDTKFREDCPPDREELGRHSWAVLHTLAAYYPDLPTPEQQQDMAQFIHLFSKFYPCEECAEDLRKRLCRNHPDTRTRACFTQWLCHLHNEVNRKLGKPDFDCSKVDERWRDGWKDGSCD

For `CCCCCCCOc1ccc(OC(=O)c2cccnc2)cc1`, the EC50 in assay [1] is 1.89 µM (active); in assay [3], 4.45 µM (active). In addition, in assay [2], the IC50 is > 80 µM (inactive).
Regarding `C=C(CC(=O)OC)C[C@]1(CC(=O)OC)CC2(CC=C(C)C)C(=O)C(C(=O)c3ccccc3)=C(OC(=O)c3ccc(Br)cc3)C(CC=C(C)C)(C1)C2=O` (stereo partly specified), the AC50 on Cytochrome P450 3A4 is 3.16 µM (inconclusive).
As for `CCOC(=O)c1[nH]c2c(c1C)C(=O)CC(c1ccc(F)cc1)C2` (stereo unspecified), the IC50 in [2] is > 80 µM (inactive).
For `O=C(/C=C/c1ccccc1Cl)Nc1cccc(O)c1`, in [4], the EC50 is > 50 µM (active).
On to `CCOC(=O)CCc1c(C)c2ccc(O)cc2oc1=O`, for which the values for the half-inhibitory concentration (IC50) in assay [5] and in assay [6] were > 100 µM (not active) and > 100 µM (inactive), respectively.
As for `CSc1cccc(NC(=O)c2c(Cl)cnn2C)c1`, the AC50 in assay [7] was 7.08 µM (active).
On to `Cc1ccc(S(=O)(=O)NNc2ccccc2)c(C)c1`, for which, in assay [4], the EC50 is > 50 µM (active). Further, in [8], the AC50 was 0.319 µM (active).
For `Cc1c(O)c(O)cc2c1oc1c3ccccc3oc(=O)c21`, at Cytochrome P450 3A4, the concentration at half-maximal activity (AC50) was 20 µM (inconclusive).
Still for that read-out and setting: as for `COc1ccc(-c2coc3ccc(OC4OC(COC(C)=O)C(OC(C)=O)C(OC(C)=O)C4OC(C)=O)c(OC(C)=O)c3c2=O)cc1` (stereo unspecified), the figure is 15.8 µM (inconclusive).
For the compound `O=C(O)CSc1nc2ccc(Br)cc2o1`, the IC50 in assay [9] is listed as > 100 µM (not active).
Regarding `CCN(CC)C(=O)c1c(C)[nH]c(=S)c(C#N)c1-c1ccco1`, the IC50 in [10] was > 80 µM (inactive).
Take `S=C([S-])NCCNC(=S)[S-].[Zn+2]`: on Cytochrome P450 3A4, the AC50 is 25.1 µM (inconclusive).
For the compound `O=S1(=O)CC2N=C(N(Cc3c(F)cccc3Cl)c3ccccc3F)SC2C1` (stereo unspecified), the IC50 was > 100 µM (not active) in assay [5] and > 100 µM (inactive) in assay [6].
The corresponding values for `COc1ccc(C(=O)Nc2nc(-c3cccs3)c(NC(C)=O)s2)cc1` are > 100 µM (not active) and > 100 µM (inactive).
In the case of `Cc1nc([N+](=O)[O-])c(SCc2ccc(O)c([N+](=O)[O-])c2)[nH]1`, the IC50 in assay [11] is 77.9 µM (active).
As for `CSc1nc(-c2ccccc2)nn1C(=O)c1ccc(Cl)cc1`, the AC50 in assay [12] was 4.38 µM (active). Further, the IC50 at Prothrombin was 0.725 µM (active). In addition, on Protein RecA, the 50% effective concentration (EC50) is 44.3 µM (active).
`O=C(Nc1cc2c3c(c1)C1CCCC1CN3CC1CCCC21)c1ccc([N+](=O)[O-])cc1` (stereo unspecified): the results for the AC50 in assay [13] and in assay [14] were 4.88 µM (active) and 2.2 µM (active), respectively. The EC50 in [1] was 1.07 µM (active); in assay [3], > 60 µM (inconclusive). Also, the IC50 against Prothrombin is on record as > 50 µM (not active).
As for `Cc1ccc(S(=O)(=O)N(C)C)cc1NC(=S)NC12CC3CC(CC(C3)C1)C2`, the 50% inhibitory concentration (IC50) is > 100 µM (not active) in assay [5] and > 100 µM (inactive) in assay [6].
Turning to `CCCn1c(C)nc2c(N3CCOCC3)nc(C)nc21`, the AC50 at Cytochrome P450 3A4 is 7.94 µM (inconclusive).
For `CCOc1ccc(NC(=O)c2ccc(N)cc2)cc1`, the EC50 in assay [4] is > 50 µM (active).
The same measure, in the same setting: for `Cc1cccn2c(=O)c3cc(C(=O)NCC4CCCO4)c(=N)n(C4CCCC4)c3nc12` (stereo unspecified) the value was > 50 µM (active).
On to `O=C(Nc1cc(S(=O)(=O)N2CCOCC2)ccc1N1CCCCC1)c1cc(-c2ccccn2)nc2ccccc12`, for which the IC50 in assay [11] is 92.6 µM (active); in the assay with H9c2 it was > 79 µM (inactive).
As for `O=[N+]([O-])c1ccc(O)c(/C=N/n2c(S)nnc2-c2ccccc2)c1`, in [7], the concentration at half-maximal activity (AC50) is 7.9 µM (active).
For the compound `Cc1cc(C)n(/N=C/c2cc([N+](=O)[O-])ccc2O)c(=O)c1`, the 50% effective concentration (EC50) in assay [4] is > 50 µM (active).
As for `CCn1/c(=N/c2ccc(N3CCOCC3)cc2)ccc2ccccc21`, the IC50 was > 100 µM (not active) in [5] and > 100 µM (inactive) in assay [6].
As for `Cc1cc(C)nc(/N=C(\N)NCCc2ccccc2)n1`, in assay [10], the IC50 is > 80 µM (inactive).

In general, EC50 refers to the midpoint of the concentration-response curve. What is called IC50 is the concentration at which inhibition is half-maximal. In general, AC50 refers to the midpoint of the concentration-response curve, whichever way the signal moves.
